Source: patent US11439709B2, “Phospholipid ether analogs as cancer-targeting drug vehicles” (Cellectar Biosciences, Inc., priority 2014, dated 2022)

Key:
[1] = system: non-small cell lung carcinoma (NSCLC) tumors; assay: Clinical evaluation of 131I-CLR1404 in NSCLC patients (gamma imaging); format: in vivo, human; conditions: two patients with advanced NSCLC; injection of <1 mCi 131I-CLR1404
Experimental: To date, two patients with advanced NSCLC were imaged after an injection of <1 mCi of ^131I-CLR1404. Blood and urine samples were collected at predetermined times, and gamma imaging performed at several time points following administration.
Materials and Methods: Following intravenous injection of iodine-131 labeled CLR1404 (1 mCi/20 μg), patients with advanced NSCLC where scanned at 3, 6, 24, 48, 96 h and at 7 and 11 days on a GE Maxxus dual Head SPECT scanner. Blood and urine samples were collected for pharmacokinetic analysis as well as clinical hematologic, renal, and hepatic bioanalysis.

[2] = system: human RL-251 tumor xenograft; assay: Prolonged retention of 131I-CLR1404 by RL-251 tumor xenograft; format: in vivo, SCID mouse; conditions: See FIG. 3
Excerpt: FIG. 3. Prolonged retention of ^131ICLR1404 by human RL-251 tumor xenograft in SCIO mouse.

[3] = system: xenograft, orthotopic and transgenic cancer and cancer stem cell derived animal models; assay: Tumor selectivity of radioiodinated CLR1404 across animal tumor models (overall count); format: in vivo; conditions: transgenic and spontaneous rodent models
Experimental: All described animal studies were performed according to animal protocols approved by the Institutional Animal Care and Use Committee. Female athymic nude mice (Hsd:Athymic Nude-Foxnlnu or Crl:NU-Foxn1nu, Charles River Laboratories) about 4 to 5 weeks of age, 16 to 18 g (n=6), were used for human tumor xenograft studies. Mice were anesthetized with isoflurane and injected subcutaneously with viable tumor cells in 100 μl of Dulbecco's PBS (or, for glioma cells, […] of PBS) into the right flank. Inoculum sizes were 1×10^6 (for renal, ovarian, glioma, pancreatic, prostate, and NSCLC models), 2×10^6 (for colorectal and uterine models), or 3×10^6 (breast).
Radioiodinated ^124l-LR1404 was tested. in subcutaneous and orthotopic xenografts of 60 different spontaneous, transgenic, human, and rodent malignant cell lines and tumor types. […] Representative examples are of both human (FIG. 5A-5l) and rodent (FIG. 5J-M) tumors.

[4] = system: cancer cell lines (renal, ovarian, pancreatic, melanoma, and prostate); assay: Uptake of CLR1501 by cancer cell lines versus normal fibroblasts (confocal microscopy); format: cell-based; conditions: 24 hours; five cancer cell lines (renal, ovarian, pancreatic, melanoma, prostate) vs normal human skin fibroblasts; 5 or 7.5 μM
Excerpt: Human cancer cell lines were purchased from the American Type Culture Collection (ATCC). They included the following: Caki-2 (renal; clear cell carcinoma), HCT-116 (colorectal carcinoma); MES-SA/Dx5 (uterine sarcoma) [all maintained in McCoy's 5a medium supplemented with 10% fetal bovine serum (FBS)], Ovcar-3 (ovarian adenocarcinoma) [maintained in RPMI medium supplemented with 20% FBS], U87-MG (glioma) [maintained in minimum essential medium supplemented with 10% FBS], Mia Paca-2 (pancreatic carcinoma) (maintained in Dulbecco's modified Eagle's medium supplemented with 10% FBS), PC-3 (prostate carcinoma) (maintained in F-12K medium supplemented with 10% FBS), MDA-MB-231 (triple-negative mammary gland adenocarcinoma) (maintained in Leibovitz's medium supplemented with 10% FBS), and A549 (non-small cell lung carcinoma) (maintained in F-12 medium supplemented with 10% FBS). Normal human skin fibroblasts were purchased from ATCC and grown in Fibroblast Basal Medium PCS-201-030 supplemented with serum-free kit (Fibroblast Growth. Kit-Serum-Free PCS-201-040). […]
All cells were maintained at 37° C. in appropriate medium supplemented with 10% FBS and 5% CO2. […] The emission signal of CLRI 50 I was detected using Alexa Fluor 488 filters (ex/em 480/520 nm).

[5] = system: human glioblastoma stemlike cells and serum-cultured human glioblastoma cells; conditions: Weichert J. P., et al. (2014), FIG. 2; cited from earlier work
PC-3 cells = assay: Uptake of 125I-CLR1404 by PC-3 cells after lipid raft disruption with filipin III; format: cell-based; conditions: PC-3 cells pretreated with 2 μg/ml filipin III 15 min, then 125I-CLR1404 for 1 h; compared to untreated control cells
Experimental: PC-3 cells were pretreated with either 2 μg/ml filipin III or vehicle for 15 min, then washed and incubated with 2 μCi of ^125I-CLR1404 for 1 h. The media was removed and the cells were washed with phosphate buffered saline containing 0.1% bovine serum albumin, trypsinized, then split into two samples for determination of cell number by DNA content (A280 compared to a cell line specific standard curve) and counts per minute using a Gamma Counter (Perkin Elmer).

C6 glioma = assay: Rat C6 glioma model, NM404 imaging and tissue distribution; format: in vivo; conditions: for Tumor to brain ratio: C6 glioma-bearing rats
Experimental: Materials and Methods: All animals were housed and handled in accordance with the University of Wisconsin Research Animal Resources Center guidelines. Rat C6 glioma cells were propagated in DMEM medium (Life Technologies, Gaithersburg, Md.) supplemented with 10% heat-inactivated FBS (Bio Whittaker, Walkersville, Md.), 100 U/ml penicillin G, […] streptomycin, and 0.01 M HEPES (Life Technologies, Gaithersburg, Md.). Intracranial tumor implantation was performed as described previously. Cohen J D, et al., Intracranial C6 glioma model in adult Wistar-Furth rats. J Neuro Oncol 1990 8(1):95-6. Briefly, 1×10^6 C6 cells were resuspended in […] 1.2% methylcellulose and injected into the frontal lobes of anesthetized female Wistar rats (Harlan, Indianapolis, Ind.). Sham-operated animals received intracranial injections of an equal volume of methylcellulose without tumor cells.
Imaging Studies: Ten days after implantation, the presence of intracranial tumors was confirmed with MM. Briefly, anesthetized rats (6) received 2 ml of Gadodiamide (Gd, Omniscan 287 mg/ml, Nycomed, Princeton, N.J.) intraperitoneally and imaged 10 min later using a 1.5 Tesla clinical MR system (GE Signa LX) and a GE phased array extremity coil. The Tl-weighted (TR=500 ms, TE=I6.5 ms) multislice sequences covering the entire brain of each rat were inspected to select tumor-bearing rats with varying tumor sizes, and sham-operated rats for NM404 injections.
NM404 [18-(4-iodophenyl)-octadecylphosphocholine] (100 mg) was radioiodinated with ^125l via isotope exchange with Na^125I in a melt of pivalic acid. Weichert, et al. Int J Appl Rad Isotopes 1986; 37:907-913. NM404 has the same chemical structure as CLR1404 except that it is radioiodinated with ^125l instead of ^124l or ^131l. Following HPLC purification NM404 was dissolved in an aqueous 2% Polysorbate 20 solution prior to tail vein injection (5: −20 μCi/200 g rat) into four tumor-bearing and three sham-operated rats. At 1 (n=1), 2 (n=1), and 4 (n=2) days after NM404 injection, animals were euthanized (CO2) and brains were excised and imaged on a modified Bioscan AR2000 radio-TLC scanner (1 mm increments at 2 min acquisition/lane and 1 mm high-resolution collimator). In addition, normal brain, blood, kidney, liver, spleen, thyroid, and tumor tissues were weighed, and radioactivity counted in a gamma counter. The tissue distribution of radioactivity was then correlated to brain histology.

C[N+](C)(C)CCOP(=O)([O-])OCCCCCCCCCCCCCCCCCCc1ccc(I)cc1 [CLR1404, 18-(4-iodophenyl)-octadecylphosphocholine]
tumor uptake and retention in the primary lung tumor [1]: significant tumor uptake and retention
time remaining in cancer cells [2]: up to 20 days
models showing tumor selectivity / selective and prolonged tumor retention [3]: 55/60

C[N+](C)(C)CCOP(=O)([O-])OCCCCCCCCCCCCCCCCCCc1ccc(C2=C3C=CC=[N+]3[B-](F)(F)n3cccc32)cc1 [CLR1501]
preferential uptake in cancer cell lines compared to normal fibroblasts [4]: five to nine
uptake compared to normal human astrocytes and fetal human neural stem cells [5]: enhanced uptake

C[N+](C)(C)CCOP(=O)([O-])OCCCCCCCCCCCCCCCCCCc1ccc(I)cc1 [NM404, 18-(4-iodophenyl)-octadecylphosphocholine]
less uptake after disruption of lipid rafts (PC-3 cells): ~40%
Tumor to brain ratio (C6 glioma; 48 h after tail vein injection): 12.2
Tumor to brain ratio (C6 glioma; 96 h after tail vein injection): 6.7
uptake and retention in gliomas (imaging) (C6 glioma; gliomas ranging from 3-5 mm in diameter): striking uptake and prolonged retention in all gliomas
Radioactivity in normal brain tissue (C6 glioma; sham operated control animals): minimal
